Results published in patent US4346173A, “Process for the production of acyl-Coenzyme A oxidase” (Toyo Jozo Kabushiki Kaisha, priority 1979, dated 1982).

Assays:
Experiment in all cases: Acyl-CoA oxidase assay (hydrogen peroxide colorimetry at 545 nm), Km value
[1] = test system: acyl-CoA oxidase of Arthrobacter sp. B-0720; assay type: biochemical; details: substrate of the assay method: palmitoyl-CoA; 37° C.; phosphate buffer pH 7.0 or tris-HCl buffer pH 8.0
Experimental: (§1) Enzyme solution (10 μl) is added to a reaction mixture (0.5 ml) consisting of 0.2 M phosphate buffer (pH 7.0) or 0.2 M tris-HCl buffer (pH 8.0) (0.1 ml), 5 mM 4-aminoantipyrine (0.05 ml), 3 mM diethyl m-toludine (0.05 ml), peroxidase (0.5 mg/ml, 0.05 ml), 25 mM palmitoyl-CoA (0.02 ml) and distilled water (0.23 ml) and the mixture is incubated at 37° C. for 10 minutes. 4 M urea (0.5 ml) is added to stop the reaction, and 1% by weight of Triton X-100 (2 ml) is added thereto and the generated hydrogen peroxide is measured at 545 nm by colorimetry.
(§2) A unit (1 unit, 1 U) of enzyme activity is defined as the activity of enzyme which generates 1μ mole of hydrogen peroxide per minute.

[2] = test system: acyl-CoA oxidase of Aspergillus candidus M-4815; assay type: biochemical; details: substrate of the assay method: palmitoyl-CoA; 37° C.; phosphate buffer pH 7.0 or tris-HCl buffer pH 8.0
Experimental: as §1, §2

[3] = test system: acyl-CoA oxidase of Cladosporium resinae IFO 6367; assay type: biochemical; details: substrate of the assay method: palmitoyl-CoA; 37° C.; phosphate buffer pH 7.0 or tris-HCl buffer pH 8.0
Experimental: as §1, §2

[4] = test system: acyl-CoA oxidase of Macrophomina phaseoli ATCC 14383; assay type: biochemical; details: substrate of the assay method: palmitoyl-CoA; 37° C.; phosphate buffer pH 7.0 or tris-HCl buffer pH 8.0
Experimental: as §1, §2

[5] = test system: acyl-CoA oxidase of Monascus sp. M-4800; assay type: biochemical; details: substrate of the assay method: palmitoyl-CoA; 37° C.; phosphate buffer pH 7.0 or tris-HCl buffer pH 8.0
Experimental: as §1, §2

[6] = substrate: CCCCCCCCCCCCCCCC(=O)SCCNC(=O)CCNC(=O)[C@H](O)C(C)(C)COP(=O)(O)OP(=O)(O)OC[C@H]1O[C@@H](n2cnc3c(N)ncnc32)[C@H](O)[C@@H]1OP(=O)(O)O; assay type: biochemical, Saccharomyces cerevisiae; details: other: substrate of the assay method: palmitoyl-CoA, 37° C., phosphate buffer pH 7.0 or tris-HCl buffer pH 8.0
Experimental: as §1, §2

`CCCCCCCCCCCCCCCC(=O)SCCNC(=O)CCNC(=O)[C@H](O)C(C)(C)COP(=O)(O)OP(=O)(O)OC[C@H]1O[C@@H](n2cnc3c(N)ncnc32)[C@H](O)[C@@H]1OP(=O)(O)O` [palmitoyl-CoA] gave a Km [1] of 130 µM, a Km [2] of 110 µM and a Km [3] of 120 µM. For the same molecule, the Km [4] was 87 µM and the Km [5] was 150 µM.

B1: acyl-CoA oxidase of Saccharomyces cerevisiae (strain Y 0036) (Saccharomyces cerevisiae S288C) (protein)
chain: MTRRTTINPDSVVLNPQKFIQKERADSKIKVDQVNTFLESSPERRTLTHALIDQIVNDPILKTDTDYYDAKKMQEREITAKKIARLASYMEHDIKTVRKHFRDTDLMKELQANDPDKASPLTNKDLFIFDKRLSLVANIDPQLGTRVGVHLGLFGNCIKGNGTDEQIRYWLQERGATLMKGIYGCFAMTELGHGSNVAQLQTRAVYDKQNDTFVIDTPDLTATKWWIGGAAHSATHAAVYARLIVEGKDYGVKTFVVPLRDPSTFQLLAGVSIGDIGAKMGRDGIDNGWIQFRNVVIPREFMLSRFTKVVRSPDGSVTVKTEPQLDQISGYSALLSGRVNMVMDSFRFGSKFATIAVRYAVGRQQFAPRKGLSETQLIDYPLHQYRVLPQLCVPYLVSPVAFKLMDNYYSTLDELYNASSSAYKAALVTVSKKLKNLFIDSASLKATNTWLIATLIDELRQTCGGHGYSQYNGFGKGYDDWVVQCTWEGDNNVLSLTSAKSILKKFIDSATKGRFDNTLDVDSFSYLKPQYIGSVVSGEIKSGLKELGDYTEIWSITLIKLLAHIGTLVEKSRSIDSVSKLLVLVSKFHALRCMLKTYYDKLNSRDSHISDEITKESMWNVYKLFSLYFIDKHSGEFQQFKIFTPDQISKVVQPQLLALLPIVRKDCIGLTDSFELPDAMLNSPIGYFDGDIYHNYFNEVCRNNPVEADGAGKPSYHALLSSMLGRGFEFDQKLGGAANAEILSKINK
notes: endogenous in cells; host or cells: Saccharomyces cerevisiae Y 0036 (FERM-P No. 5174; enzyme of the producing strain itself)
Work on B1 yielded a Km [6] of 500 µM.
